Earlier results in US20190105343A1, “Treatment of Skin Conditions and Diseases Associated with Microbial Biofilms” (Bioclenz PH LLC, priority 2016, published 2019).
Values after ≈ are worked out from the molar mass of the structure shown.

How the values were obtained:
[1] = tested on: Pseudomonas aeruginosa; conditions: pH 5.0-6.0
[2] = tested on: Gram-negative anaerobes
[3] = aqueous solutions at 37° C.
[4] = tested on: aerobic and anaerobic gram-positive bacteria; conditions: broth and biofilm cultures

For CCCCCCCCCCCC(=O)OCC(O)CO (stereo not shown) [GML, glycerol monolaurate], the killing [1] is given as “killed”, the susceptibility [2] is given as “susceptible” and the solubility limit [3] is given as 100 µg/mL (≈ 364 µM). For the same molecule, the bactericidal activity [4] was “bactericidal”.
